Experimental data reported in ChEMBL document CHEMBL4354855 (J Med Chem, 2020).
One block for each molecule: values may come before it.

Tests used:
[1] = Oral bioavailability in OFA-1 rat at 10 mg/kg; type: ADME, organism-based; conditions: in vivo
[2] = Drug level in OFA-1 rat blood at 10 mg/kg, po measured after 5 hrs; type: ADME, organism-based; conditions: whole blood, read-out: Drug uptake
[3] = Intrinsic clearance in rat liver microsomes; type: ADME, Microsome; conditions: read-out: CLH
[4] = Half life in human plasma; type: ADME, cell-free
[5] = Oral bioavailability in Beagle dog at 3 mg/kg; type: ADME, organism-based, Canis lupus familiaris; conditions: in vivo
[6] = Thermodynamic solubility of the compound at pH 6.8; type: physicochemical; conditions: buffer, read-out: Therm_solubility
[7] = Dose normalized Cmax in Lewis rat at 1 mg/kg, iv or 3 mg/kg, po; type: ADME, organism-based; conditions: in vivo
[8] = Half life in C57BL/6 mouse at 1 mg/kg, iv or 3 mg/kg, po; type: ADME, organism-based; conditions: in vivo
[9] = Oral bioavailability in C57BL/6 mouse at 3 mg/kg; type: ADME, organism-based; conditions: in vivo
[10] = Volume of distribution at steady state in Lewis rat at 1 mg/kg, iv or 3 mg/kg, po; type: ADME, organism-based; conditions: in vivo, read-out: Vdss
[11] = Half life in Beagle dog at 1 mg/kg, iv or 3 mg/kg, po; type: ADME, organism-based, Canis lupus familiaris; conditions: in vivo
[12] = Tmax in C57BL/6 mouse at 1 mg/kg, iv or 3 mg/kg, po; type: ADME, organism-based; conditions: in vivo
[13] = Clearance in C57BL/6 mouse at 1 mg/kg, iv or 3 mg/kg, po; type: ADME, organism-based; conditions: in vivo
[14] = Tmax in Beagle dog at 1 mg/kg, iv or 3 mg/kg, po; type: ADME, organism-based, Canis lupus familiaris; conditions: in vivo
[15] = Drug level in OFA-1 rat at 1 mg/kg, po measured after 5 hrs; type: ADME, organism-based; conditions: in vivo, read-out: Drug uptake
[16] = Thermodynamic solubility of the compound at pH 1; type: physicochemical; conditions: buffer, read-out: Therm_solubility
[17] = Dose normalized AUC in C57BL/6 mouse at 3 mg/kg, po; type: ADME, organism-based; conditions: in vivo
[18] = Half life in Lewis rat at 1 mg/kg, iv or 3 mg/kg, po; type: ADME, organism-based; conditions: in vivo
[19] = Intrinsic clearance in mouse liver microsomes; type: ADME, Microsome; conditions: read-out: CLH
[20] = Dose normalized Cmax in Beagle dog at 1 mg/kg, iv or 3 mg/kg, po; type: ADME, organism-based, Canis lupus familiaris; conditions: in vivo
[21] = Dose normalized Cmax in C57BL/6 mouse at 1 mg/kg, iv or 3 mg/kg, po; type: ADME, organism-based; conditions: in vivo
[22] = Dose normalized AUC in Beagle dog at 3 mg/kg, po; type: ADME, organism-based, Canis lupus familiaris; conditions: in vivo
[23] = Volume of distribution at steady state in C57BL/6 mouse at 1 mg/kg, iv or 3 mg/kg, po; type: ADME, organism-based; conditions: in vivo, read-out: Vdss
[24] = Dose normalized AUC in Lewis rat at 3 mg/kg, po; type: ADME, organism-based; conditions: in vivo
[25] = Tmax in Lewis rat at 1 mg/kg, iv or 3 mg/kg, po; type: ADME, organism-based; conditions: in vivo
[26] = Lipophilicity, log P of the compound; type: physicochemical; conditions: octanol/water
[27] = Drug level in OFA-1 rat at 1 mg/kg, po measured after 0.5 hrs; type: ADME, organism-based; conditions: in vivo, read-out: Drug uptake
[28] = Clearance in Beagle dog at 1 mg/kg, iv or 3 mg/kg, po; type: ADME, organism-based, Canis lupus familiaris; conditions: in vivo
[29] = Intrinsic clearance in dog liver microsomes; type: ADME, Canis lupus familiaris, Microsome; conditions: read-out: CLH
[30] = Clearance in Lewis rat at 1 mg/kg, iv or 3 mg/kg, po; type: ADME, organism-based; conditions: in vivo
[31] = Volume of distribution at steady state in Beagle dog at 1 mg/kg, iv or 3 mg/kg, po; type: ADME, organism-based, Canis lupus familiaris; conditions: in vivo, read-out: Vdss
[32] = Stability of the compound in GSH assessed as parent compound remaining measured after 24 hrs; type: physicochemical; conditions: GSH (glutathione); read-out: Stability
[33] = Oral bioavailability in Lewis rat at 3 mg/kg; type: ADME, organism-based; conditions: in vivo
[34] = Clearance in OFA-1 rat at 3 mg/kg, po; type: ADME, organism-based; conditions: in vivo
[35] = Drug level in OFA-1 rat blood at 3 mg/kg, po measured after 5 hrs; type: ADME, organism-based; conditions: whole blood, read-out: Drug uptake

SMILES: C=CC(=O)N1CC(Oc2c(N)ncnc2-c2cc(F)cc(NC(=O)c3ccc(C4CC4)cc3)c2C)C1
bioavailability [1]: 5% | concentration at 5 h [2]: 13 nM | microsomal CLint [3]: 25 µL/min/mg

SMILES: C=CC(=O)N(C)C/C=C/c1c(N)ncnc1-c1cc(F)cc(NC(=O)c2ccc(C3CC3)cc2)c1C
microsomal CLint [3]: 924 µL/min/mg

SMILES: CC#CC(=O)N(C)CCOc1c(N)ncnc1-c1cc(F)cc(NC(=O)c2ccc(C3CC3)cc2F)c1C
remaining at 24 h [32]: 79.6%

SMILES: C=CC(=O)N(C)C/C=C/c1c(N)ncnc1-c1cc(F)cc(NC(=O)c2ccc(C3CC3)cc2F)c1C
CL/F [34]: 307 mL/min/kg | half-life [4]: > 120 min

SMILES: Cc1c(NC(=O)c2ccc(C3CC3)cc2F)cc(F)cc1-c1ncnc(N)c1OCCN(C)C(=O)/C=C/CN(C)C
remaining at 24 h [32]: 60.8%

SMILES: C=CC(=O)N1CCC(Oc2c(N)ncnc2-c2cc(F)cc(NC(=O)c3ccc(C4CC4)cc3)c2C)C1 (stereo not drawn)
microsomal CLint [3]: 135 µL/min/mg

SMILES: C=CC(=O)N(C)CC/C=C/c1c(N)ncnc1-c1cc(F)cc(NC(=O)c2ccc(C3CC3)cc2)c1C
microsomal CLint [3]: 815 µL/min/mg

Next, values leading:

half-life [4]: > 120 min
SMILES: C=CC(=O)N1CCC[C@H]1COc1c(N)ncnc1-c1cc(F)cc(NC(=O)c2ccc(C3CC3)cc2F)c1C

bioavailability [5]: 5% | solubility thermodynamic [6]: < 3 µg/mL | Cmax/dose [7]: 148 nM | half-life [8]: 60 min | bioavailability [9]: 16% | Vd [10]: 1.4 L/kg | half-life [11]: 54 min | Tmax [12]: 18 min | clearance [13]: 97 mL/min/kg | half-life [4]: > 120 min | Tmax [14]: 48 min | concentration at 5 h [15]: 5.6 nM | solubility thermodynamic [16]: > 1500 µg/mL | AUC/dose [17]: 54 nM·h | half-life [18]: 30 min | microsomal CLint [19]: 325 µL/min/mg | Cmax/dose [20]: 19 nM | Cmax/dose [21]: 53 nM | AUC/dose [22]: 55 nM·h | Vd [23]: 1 L/kg | AUC/dose [24]: 225 nM·h | Tmax [25]: 18 min | logP [26]: 2.9 | concentration at 0.5 h [27]: 49.1 nM | clearance [28]: 29 mL/min/kg | microsomal CLint [29]: 146 µL/min/mg | clearance [30]: 44 mL/min/kg | Vd [31]: 1 L/kg | remaining at 24 h [32]: 68.5% | microsomal CLint [3]: 33 µL/min/mg | bioavailability [33]: 29%
SMILES: C=CC(=O)N(C)CCOc1c(N)ncnc1-c1cc(F)cc(NC(=O)c2ccc(C3CC3)cc2F)c1C [REMIBRUTINIB]

half-life [4]: > 120 min
SMILES: C=CC(=O)NCCOc1c(N)ncnc1-c1cc(F)cc(NC(=O)c2ccc(C3CC3)cc2F)c1C

half-life [4]: 42 min
SMILES: C=CC(=O)N1CC[C@H]1COc1c(N)ncnc1-c1cc(F)cc(NC(=O)c2ccc(C3CC3)cc2F)c1C

half-life [4]: > 120 min | logP [26]: 3.6
SMILES: C=CC(=O)N(CC)CCOc1c(N)ncnc1-c1cc(F)cc(NC(=O)c2ccc(C3CC3)cc2F)c1C

remaining at 24 h [32]: 95.8%
SMILES: C/C=C/C(=O)N(C)CCOc1c(N)ncnc1-c1cc(F)cc(NC(=O)c2ccc(C3CC3)cc2F)c1C

half-life [4]: 96 min | remaining at 24 h [32]: 0.1%
SMILES: C#CC(=O)N(C)CCOc1c(N)ncnc1-c1cc(F)cc(NC(=O)c2ccc(C3CC3)cc2F)c1C

bioavailability [1]: 51% | half-life [4]: 35 min
SMILES: C=CC(=O)N1CC(Oc2c(N)ncnc2-c2cc(F)cc(NC(=O)c3ccc(C4CC4)cc3F)c2C)C1

concentration at 5 h [35]: 207 nM | half-life [4]: > 120 min
SMILES: C=CC(=O)N1CCC(Oc2c(N)ncnc2-c2cc(F)cc(NC(=O)c3ccc(C4CC4)cc3F)c2C)CC1
